# Test results from US6306392A, “Composition comprising a carnitine and glutathione, useful to increase the absorption of glutathione and synergize its effects” (Sigma-Tau Healthscience S.p.A., priority 1999, dated 2001).
# How the values were obtained:
# [1] = test system: glutathione-depleted rats; experiment: Glutathione uptake and concentration in blood of glutathione-depleted (DEM) animals; assay type: in vivo, Sprague-Dawley male rats; conditions: rats depleted with diethylmaleate (DEM) 1 cc/kg i.p.; oral treatment half an hour after; measured 4 h after
# Method: To this end, the glutathione content in the blood of a group of Sprague-Dawley male rats was reduced by means of the administration of diethylmaleate (DEM)a depletor of glutathione, according to the technique described by Plummer (Plummer J., Chemical depletion of glutathione "in vivo", Methods in Enzymology, 77:50, 1981). DEM was administered intraperitoneally to fasting rats at the dose of 1 cc/kg. Half an hour after injection of diethylmaleate, glutathione alone (50 mg/kg), or yeast containing 10% glutathione (500 mg/kg), or 50 mg/kg of glutathione together with 500 mg of yeast not containing glutathione were administered orally. Another group of rats received glutathione amino acid precursors (glutamic acid 50 mg/kg, glycine 50 mg/kg, cysteine 50 mg/kg, magnesium 10 mg/kg) or the complete combination according to the invention at the same doses as described here above.
# After four hours blood samples were taken from the animals thus treated and the plasma glutathione concentration was measured.
# [2] = test system: glycerol-induced kidney failure; experiment: Activity against glycerol-induced nephropathy; assay type: in vivo, Male Sprague-Dawley rats; conditions: for Protective effect against glycerol-induced kidney lesions (in words): rat; for Urea: rat plasma 24 hours after glycerol injection (10 cc/kg of 50% w/v), treated daily three days before
# Method: The method used in this test was that described by Young (Young J. H. K., Meth. Find. Exp. Clin. Pharmacol., 13:23, 1991). According to this test, a glycerol injection induces kidney failure and nephropathy in the rat. This method was used to assess the protective effects of the combination according to the invention on the kidney. Male Sprague-Dawley rats were used, which, after being deprived of drinking water for 24 hours, were injected with 10 cc/kg of a 50% w/v solution of glycerol and water. After the injection, the animals thus treated were allowed to drink. After 24 hours, blood samples were taken from the animals and, after centrifuging, the plasma creatinine concentration was assayed (according to the method described by Taussky H. H., Clin. Chem. Acta, 1:210, 1956) and urea by means of reaction with diacetylmonoxime (Henry R. Y., Cannon D. C. Eds., Clinical Chemistry, 2 Ed. Harper & Rowe, London 1974). Propionyl L-carnitine (100 mg/kg), glutathione (50 mg/kg) or yeast containing glutathione (500 mg/kg), amino acids (25 mg/kg each), yeast (500 mg/kg) and a combination of these at the same doses were administered daily on the three days preceding the test.
# [3] = test system: CCl4-intoxicated liver cell cultures; experiment: Carbon tetrachloride (CCl4) intoxication tests on isolated rat liver cells; assay type: cell-based; conditions: for Toxic effects of carbon tetrachloride (in words): CCl4 10 mmol.L^-1
# Text: The cells used in these tests were isolated rat liver cells after perfusion with collagenase according to the method described by Seglen (Seglen F. O., Method Cell. Biol. Chem. 264:4747, 1989). Approximately 4-6×10^8 viable liver cells were collected, calculated by exclusion of non-viable cells by means of trypan blue.
# The cells thus isolated were suspended in 25 cm^2 plastic receptacles in the presence of antibiotics and 10% inactivated fetal calf serum. To the cell suspension thus obtained was added CCl4 (10 mmol.L^-1), glutathione (GSH 20 mg.L^-1), propionyl L-carnitine (100 mg.L^-1) or glutathione combined with propionyl L-carnitine. After a 4-h incubation the percentage of dead cells was estimated by release of lactate dehydrogenase, as described by Casini et al. (Casini et al., J. Biol. Chem., 257:6721, 1982).
# The cytological examination of the liver cells was done under both the light and electron microscope after fixation in 3% formalin and paraffin for light microscopy and 3% glutaraldehyde and 1% osmium tetroxide for electron microscopy.
# [4] = test system: increase in liver triglycerides induced by CCl4; experiment: Carbon tetrachloride-induced liver intoxication tests (liver triglycerides); assay type: in vivo; conditions: rats, CCl4 1 ml.kg^-1 i.p. (20% in olive oil), treated three consecutive days before
# Method: Another indicator of CCl4 toxicity in the liver is provided by the increased hepatic concentration of triglycerides.
# The CCl4 intoxication was induced by giving fasting rats an intraperitoneal injection of 1 ml.kg^-1 of a suspension of 20% CCl4 in olive oil. Prior to CCl4 intoxication the rats were treated for three consecutive days with glutathione (G=50 mg/kg), or with propionyl L-carnitine (PC=100 mg/kg), or with yeast containing 10% glutathione (YG=500 mg/kg), or with a combination of amino acids (AA=glutamic acid 50 mg, cysteine 25 mg, glycine 50 mg, magnesium 5 mg). or with the complete combination CC (CC=PC+G+AA), or with the complete yeast combination CYC (CYC=PC+YG+AA). After administration of CCl4, the livers were excised from the decapitated animals and were used to measure the triglyceride concentration according to the method described by Donabedian (Donabedian R. K., Clin. Chem., 20:632, 1974).
# [5] = test system: acetaminophen-induced mortality; experiment: Acetaminophen (paracetamol) induced toxicity tests; assay type: in vivo; conditions: mice; for Protection against the mortality induced by acetaminophen (in words): acetaminophen 600 mg/kg
# Method: Various groups of male mice received oral administrations of 600 mg/kg acetaminophen, which is a dose sufficient to cause death within 24 hours in 50% of the animals thus treated.
# At the same time as the acetaminophen administration, one group of animals (group G) were administered glutathione (G) and a second (group YG) were administered yeast containing 10% glutathione (YG); a third group (group PC) were administered propionyl L-carnitine (PC); a fourth group (group AA) were administered a combination of glutamic acid, cysteine, glycine and magnesium (AA); a fifth group (group CC) were administered a first combination according to the invention, called the "complete combination" (CC), consisting of PC+G+AA, while a sixth group (group CYC) were administered a second combination according to the invention, called the "complete yeast combination" (CYC), consisting of PC+YG+AA.
# These synergistic effects appear even more marked when the mice are administered a 900 mg/kg acetaminophen dose, which causes the deaths of 100% of the animals. In this case, only administration of the complete yeast combination, CYC, protects more than 50% of the animals treated against death (see Table 2).
# The protection against acetaminophen at the dose of 900 mg/kg afforded by the new composition was even more marked when the animals were treated for 7 consecutive days prior to acetaminophen administration with the various components of the combination (see Table 3).
# [6] = test system: glutathione (GSH) concentration; experiment: Effects on glutathione (GSH) concentration in young and elderly rats; assay type: in vivo
# Method: Since the metabolic and enzymatic activity of glutathione is known to be reduced in elderly rats and this reduction is regarded as one of the causes of ageing, the effect of the administration of the new composition or its individual components on glutathione concentrations in the plasma and liver of young and elderly rats was evaluated.
# For this test two different groups of rats were used: young rats (2-3 months) and elderly rats (8-10 months). The glutathione (GSH) concentration was calculated in both groups according to the technique described by Moron (Moron M. S., Biochem. Biophys. Acta, 582:67, 1979) both before the start of the test and after 15 days' daily administration of propionyl L-carnitine (100 mg/kg), glutathione (50 mg/kg), propionyl L-carnitine with glutathione or with yeast containing 10% glutathione (500 mg/kg), amino acids (500 mg/kg) or the combination according to the invention.
# [7] = test system: hypertriglyceridaemia induced in the rat; experiment: Protection against experimental hypertriglyceridaemia (fructose) in the rat; assay type: in vivo; conditions: fructose 3 g/kg oral; for Hypertriglyceridaemia (blood triglycerides): five hours after, oral treatment three days before and three hours after
# Text: The method used for this test was that described by Carlson (Carlson L. A. V., J. Atheroscl. Res., 8:667, 1968) and modified as described in Atherosclerosis, 16:349, 1972. According to this test oral administration of 3 g/kg of fructose in the rat induces a substantial increase in both liver and serum triglycerides five hours after administration.
# The aim of this test was to assess whether the administration of the components of the composition according to the invention, when used alone or in combination, were capable of leading to a reduction in this triglyceride abnormality which is regarded as underlying severe liver dysfunctions as well as atherosclerosis.
# To this end, various groups of rats were treated with glutathione (G=50 mg/kg), with propionyl L-carnitine (PC=50 mg/kg), or with yeast containing 10% glutathione (YG=500 mg/kg), or with an amino acid mixture (AA=glutamic acid 50 mg/kg, cysteine 25 mg/kg, glycine 100 mg/kg+magnesium 5 mg/kg), or with a combination of these various components (at the same doses) without yeast (CC) or with yeast (CYC). The treatment was given orally on the three days preceding fructose administration and for three hours after its administration. Five hours after fructose administration all animals were sacrificed and blood samples were used to assay triglycerides according to the method described by Donabedian (Donabedian R. K., Clin. Chem., 20:632, 1974).
# [8] = CCl4-intoxicated liver cell cultures, table at the place of Table 5, printed as a repeat of TABLE 4
# [9] = isolated rat liver cells, CCl4 10 mmol.L^-1, 4-h incubation, lactate dehydrogenase release, GSH 20 mg.L^-1, propionyl L-carnitine 100 mg.L^-1, Table 4
# [10] = acetaminophen 900 mg/kg, dead/total, Table 2
# [11] = acetaminophen 900 mg/kg, dead/total, table at the place of Table 3, printed as a repeat of TABLE 2
# [12] = oral acetaminophen 600 mg/kg, substance given at the same time, mortality 24 hours after treatment (dead/total), Table 1
# [13] = elderly rats (8-10 months), liver, after 15 days' daily administration, Table 9
# [14] = elderly rats (8-10 months), liver, before the start of the test, Table 9
# [15] = elderly rats, 15 days, table at the place of Table 10, printed as a repeat of TABLE 9
# [16] = elderly rats, time 0, table at the place of Table 10, printed as a repeat of TABLE 9
# [17] = young rats (2-3 months), liver, after 15 days' daily administration, Table 9
# [18] = young rats (2-3 months), liver, before the start of the test, Table 9
# [19] = young rats, 15 days, table at the place of Table 10, printed as a repeat of TABLE 9
# [20] = young rats, time 0, table at the place of Table 10, printed as a repeat of TABLE 9
Compound,Glutathione (GSH) concentration in plasma [1],Protective effect against glycerol-induced kidney lesions (in words) [2],Urea [2],"% dead cells [3, 8]",Toxic effects of carbon tetrachloride (in words) ([3]; isolated rat liver cells),"% dead cells [3, 9]",Triglycerides (liver) [4],Protection against the mortality induced by acetaminophen (in words) [5],"Mortality [5, 10]","Mortality [5, 11]","Mortality [5, 12]","Glutathione concentration in liver, elderly rats, time 15 days [6, 13]","Glutathione concentration in liver, elderly rats, time 0 [6, 14]","Glutathione concentration in liver, elderly rats, time 15 days [6, 15]","Glutathione concentration in liver, elderly rats, time 0 [6, 16]","Glutathione concentration in liver, young rats, time 15 days [6, 17]","Glutathione concentration in liver, young rats, time 0 [6, 18]","Glutathione concentration in liver, young rats, time 15 days [6, 19]","Glutathione concentration in liver, young rats, time 0 [6, 20]",Efficacy on serum triglyceride levels induced by fructose (in words) [7],other results
"N[C@@H](CCC(=O)N[C@@H](CS)C(=O)NCC(=O)O)C(=O)O [G, N-(N-L-L-γ-glutamyl-cysteinyl) glycine]",0.95 ± 0.88 mg/dL,fairly good protective effect,79.9 ± 9.9 mg/100 ml,55 ± 5%,capable of reducing the toxic effects of carbon tetrachloride,55 ± 5%,18.7 ± 2.1 mg/g,partial protection,7/10,7/10,4/10,9.90 ± 0.76 GSH ng/mg protein,8.82 ± 0.69 GSH ng/mg protein,9.90 ± 0.76 GSH ng/mg protein,8.82 ± 0.69 GSH ng/mg protein,12.85 ± 0.66 GSH ng/mg protein,12.1 ± 0.36 GSH ng/mg protein,12.85 ± 0.66 GSH ng/mg protein,12.1 ± 0.36 GSH ng/mg protein,small efficacy,Hypertriglyceridaemia (blood triglycerides) [7]: 180 ± 5.9 mg/100 ml
"CCC(=O)O[C@H](CC(=O)[O-])C[N+](C)(C)C [PC, Propionyl L-carnitine]",0.70 ± 0.54 mg/dL,fairly good protective effect,88.5 ± 11.5 mg/100 ml,70 ± 7%,capable of reducing the toxic effects of carbon tetrachloride,70 ± 7%,20.2 ± 1.9 mg/g,no such protection,10/10,10/10,6/10,9.3 ± 0.46 GSH ng/mg protein,7.9 ± 0.51 GSH ng/mg protein,9.3 ± 0.46 GSH ng/mg protein,7.9 ± 0.51 GSH ng/mg protein,12.90 ± 0.71 GSH ng/mg protein,11.25 ± 0.41 GSH ng/mg protein,12.90 ± 0.71 GSH ng/mg protein,11.25 ± 0.41 GSH ng/mg protein,small efficacy,Hypertriglyceridaemia (blood triglycerides) [7]: 185 ± 7.1 mg/100 ml
